Results on one molecule are retold here after patent US6451818B1, “Therapeutic use of 1,6-dimethyl-8β-hydroxymethyl-10α-methoxyergoline” (Aventis Pharma S.A., priority 1998, dated 2002).

Assay [1] deals with motor neurons (astrocyte/motor neuron co-cultures). The experiment in a line: Neuronal survival in astrocyte/motor neuron co-cultures. The assay is classed as cell-based, rat. Conditions: for % of labelled motor neurons, very large motor neurons: vehicle alone = 100 ± 2.8; for % of labelled motor neurons, all the motor neurons: vehicle alone = 100 ± 9.4. As to the method: (§1) The motor-neuron-enriched cultures are prepared using the centrifugation method which was described by R. L. SCHNAAR and A. E. SCHAFFNER, J. Neurosci., 1, 204-217 (1981) and modified by W. CAMU and C. E. HENDERSON, J. Neurosci. Methods, 44, 59-70 (1992). The motor neurons are spread, at a density of 2500 cells per plate, on 35 mm culture plates which have previously been coated with laminin/ornithine in accordance with the method of A. G. ESTEVEZ et al., J. Neurosci., 18 (3), 923-931 (1998). The cultures are then maintained in L15 medium (GIBCO BRL) containing sodium bicarbonate (22 mM), conalbumin (0.1 mg/ml), putrescine (0.1 mM), insulin (5 μg/ml), sodium selenite ([…]), glucose (20 mM), progesterone (21 nM), penicillin (100 IU/ml) and streptomycin (100 μg/ml).
(§2) The astrocytes are obtained from young, one-day-old rats using the slightly modified method of R. P. SANETO and J. DE VELLIS as described in Neurochemistry a practical approach (A. J. TURNER and H. A. St JOHN) IRL Press, Oxford-Washington D.C., pp. 27-63. The spinal cords are dissected out under sterile conditions and freed of meninges and dorsal ganglia. Five to ten spinal cords are transferred into PBS (phosphate buffered saline) and cut before being incubated at 37° C. for 25 minutes in PBS to which 0.25% trypsin has been added. The enzymatic treatment is stopped by adding 10 ml of Dulbecco's modified Eagle medium (DMEM), to which 10% fetal calf serum (FCS) has been added, and the cells are collected by centrifugation. Another step of mechanical dissociation is performed using the end of a 1 ml pipette. The cells are spread, at a density of 1.5-2×10^6 cells per 25 cm^2 of culture medium, in DMEM containing 10% FCS. After 2 days in vitro, the cultures are fed every day. When a visible monolayer of cells has been completed, the cultures are stirred at 250 rpm for 48 hours and, on the following day, the monolayers are treated with cytosine arabinoside (10^−5 M) for 48 hours. The astrocyte monolayers are then amplified to a density of five on 35 mm culture plates for initially 25 cm^2 culture flasks.
The cells are fixed in 4% paraformaldehyde and 0.1% glutaraldehyde in PBS (pH 7.4 and at 4° C. for 15 minutes) and in a cold methanolic solution. The cultures are then washed and the nonspecific sites are blocked with 10% goat serum and 2% bovine serum albumin (BSA) in PBS and treated for immunochemistry using antibodies against the p75 weak affinity neurotrophin receptor or a 200 kD neurofilament protein (Amersham) using the manufacturer's instructions and applying the avidin-biotin-DAB/hydrogen peroxide enhancement reaction.
The astrocytes are treated with 1,6-dimethyl-8β-hydroxymethyl-10α-methoxyergoline in the following manner: the product is dissolved in methanol, sterilized by filtration and used immediately after preparation. The treatment which is applied to the enriched motor neuron cultures is effected by adding aliquots of solutions of the products to be tested to the L15 medium by spreading. The astrocyte monolayers are exposed to the vehicle or to the solutions of the compound to be tested for 24 hours and at different concentrations. […]
(§3) The number of motor neurons is estimated by counting the labelled cells in an area of 0.4-1 cm^2 under a microscope which enlarges 200 times. In all cases, the values are expressed as a percentage of the number of motor neurons which are present in cultures maintained using trophic factors. […]

For assay [2], the system named is motor neurons (astrocyte-conditioned medium). In words: Motor neuron survival in medium conditioned by treated spinal astrocyte monolayers (neurotrophic activity produced by spinal astrocytes). The assay is classed as cell-based, rat. Particulars: % of motor neurons in cultures with trophic factors. As to the method:
as §1
as §2, with “When a visible monolayer of cells has been completed, the cultures are stirred at 250 rpm for 48 hours and, on the following day, the monolayers are treated with cytosine arabinoside (10^−5 M) for 48 hours. The astrocyte monolayers are then amplified to a density of five on 35 mm culture plates for initially 25 cm^2 culture flasks.” left out
as §3

In assay [3] the test system is motor neurons (co-cultures of astrocyte monolayers and motor neurons). The experiment in a line: Motor neuron survival, co-cultures of astrocyte monolayers and motor neurons. The assay is classed as cell-based, rat. Particulars: vehicle alone 43.9 ± 4. As to the method:
as §1, §2
The spinal astrocyte cultures consist, to an extent of more than 98%, of flat, polygonal cells which are immunoreactive for the glial fibrillar acid protein (GFAP). The monolayers are exposed to the product to be tested and then incubated with the motor neuron medium in order to obtain a conditioned culture medium. […]
as §3

Assay [4] deals with trophic factor-deprived motor neurons. In words: Neuronal death in motor-neuron-enriched cultures in the absence of trophic factor. Format: cell-based. As to the method: as §1
More than 70% of the cells are immunoreactive for the neurotrophin p75 receptor and the Islet ½ markers for spinal motor neurons. Approximately 70% of the motor neurons die by apoptosis 24 hours after the spreading if the culture is performed in the absence of a trophic factor. […]
as §3

Take `CO[C@]12C[C@@H](CO)CN(C)[C@@H]1Cc1cn(C)c3cccc2c13` [1,6-Dimethyl-8β-hydroxymethyl-10α-methoxyergoline]: the “% of labelled motor neurons, very large motor neurons” value is reported as 122.6 ± 8.2 % in assay [1] (0.1 μM) and 117 ± 5.6 % in assay [1] (1 μM). In addition, the “% of labelled motor neurons, all the motor neurons” value in assay [1] (0.1 μM) stood at 123 ± 9.3 %; in assay [1] (1 μM) it was 158.9 ± 32 %; in assay [1] (10 μM), 137.5 ± 19 %. Also, the “Motor neuron survival in %” value in assay [2] (dilution of the astrocyte-conditioned medium 1:4, vehicle alone 59.9 ± 8) was found to be 90.6 ± 4.9 %; in assay [2] (dilution of the astrocyte-conditioned medium 1:10, vehicle alone 45.4 ± 4.2), 74.8 ± 6.3 %; in assay [2] (dilution of the astrocyte-conditioned medium 1:50, vehicle alone 36.9 ± 3.2), 49.6 ± 5.3 %; in assay [3] (tested product 1 nM) it was 42.5 ± 4%; in assay [3] (tested product 10 nM), 48.9 ± 3 %; in assay [3] (tested product 100 nM), 57.4 ± 4 %. In assay [3] (tested product 1 μM), the “Motor neuron survival in %” value came to 68.7 ± 8 %. The “Neuronal arborization and cell morphology” value in assay [4] is “remain well preserved”. Further, the “Increase of the survival of trophic factor-deprived motor neurons” value in assay [4] (p<0.001) stood at 60%.
